Patent US20080188493A1 (priority 2005, published 2008)

What was measured:
Pyrenophora teres = assay: Activity against net blotch of barley caused by Pyrenophora teres, 1 day protective application (comparative test); type: in vivo; conditions: potted barley seedlings, sprayed 24 h before inoculation; visual % infection of entire leaf area after 6 days; concentration not given; untreated 90%
Experimental: The active compounds were prepared as a stock solution comprising 25 mg of active compound which was made up to 10 ml using a mixture of acetone and/or DMSO and the emulsifier Uniperol® EL (wetting agent having emulsifying and dispersing action based on ethoxylated alkylphenols) in a volume ratio of solvent/emulsifier of 99/1. The mixture was then made up to 100 ml with water. This stock solution was diluted with the solvent/emulsifier/water mixture described to the concentration of active compound stated below.
Comparative test—Activity against net blotch of barley caused by Pyrenophora teres, 1 day protective application
Leaves of potted barley seedlings were sprayed to runoff point with an aqueous suspension having the concentration of active compound stated below. 24 hours after the spray coating had dried on, the test plants were inoculated with an aqueous spore suspension of Pyrenophora [syn. Drechslera] teres, the net blotch pathogen. The test plants were then placed in a greenhouse at temperatures between 20 and 24° C. and 95 to 100% relative atmospheric humidity. After 6 days, the extent of the development of the disease was determined visually in % infection of the entire leaf area.

SMILES	melting point [°C]	Infection in % (Pyrenophora teres) [%]
C=CCCCCc1c(C)nc2cc(C)nn2c1N [I-1]	178 to 179	40
CCCCCCc1c(C)nc2cc(C)nn2c1N [compound 30, reference compound]		90
